Target: Sodium-dependent serotonin transporter (Homo sapiens, UniProt P31645)
Test: In vitro displacement of [3H]paroxetine from human serotonin transporter expressed in HEK293 cells
Format: cell-based

Chain of Sodium-dependent serotonin transporter (P31645 whole entry): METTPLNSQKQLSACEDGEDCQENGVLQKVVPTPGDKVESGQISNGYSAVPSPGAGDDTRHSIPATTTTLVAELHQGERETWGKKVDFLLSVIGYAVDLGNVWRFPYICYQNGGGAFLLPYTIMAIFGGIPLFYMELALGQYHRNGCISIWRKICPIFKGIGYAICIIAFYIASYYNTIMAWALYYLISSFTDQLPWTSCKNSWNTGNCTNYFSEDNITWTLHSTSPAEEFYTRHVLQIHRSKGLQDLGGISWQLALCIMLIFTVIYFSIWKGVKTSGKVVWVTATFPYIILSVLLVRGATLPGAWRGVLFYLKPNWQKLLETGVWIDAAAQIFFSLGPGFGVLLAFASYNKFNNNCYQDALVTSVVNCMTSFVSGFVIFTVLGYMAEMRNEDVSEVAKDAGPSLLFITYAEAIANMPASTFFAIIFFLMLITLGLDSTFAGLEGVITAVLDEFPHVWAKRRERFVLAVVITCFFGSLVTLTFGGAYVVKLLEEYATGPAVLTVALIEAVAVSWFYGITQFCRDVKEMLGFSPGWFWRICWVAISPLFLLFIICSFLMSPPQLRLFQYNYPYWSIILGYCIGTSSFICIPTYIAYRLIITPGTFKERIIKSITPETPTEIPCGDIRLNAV

## CN(C)Cc1ccccc1Sc1ccc(I)cc1N
  Ki: 1.07 nM

Reference: ChEMBL document CHEMBL1145212, “Fluorinated diaryl sulfides as serotonin transporter ligands: synthesis, structure-activity relationship study, and in vivo evaluation of fluorine-18-labeled compounds as PET imaging agents” (J Med Chem, 2005)
